# Experimental data as given in PubChem BioAssay AID2060513 (Molecular Pharmacology Branch, DTP, NCI, 2025).
# pIC50: −log10 of the molar value.
# Test system: 299254-011-R-J1-PDC complex spheroids viability
# Test: Anticancer human tumor 299254-011-R-J1-PDC patient-derived melanoma cell line growth inhibition [GQUAD]
# Settings: for pIC50: curve of first compound; for viability, T/C: stronger effect = lower value
# Source text: DNA G-quadruplex Stabilizer Agents in Combinations in Complex Spheroids
# A high-throughput screen of multi-cell type tumor spheroids was designed to identify active combinations of DNA G-quadruplex stabilizer agents and targeted small molecules. Complex spheroids include a stromal component modeled by human endothelial cells (HUVEC) and fibroblasts modeled by human mesenchymal stem cells (MSCs). The concentration ranges selected for each drug and investigational agent were based upon clinically achievable concentrations if the clinical Cmax of the agent was known.
# Compounds. The drugs and investigational agents: pidnarulex (CX-5461; NSC782164), APTO-253 (NSC789042), BRACO-19 (NSC847499), peposertib (NSC802822), ceralasertib (NSC780249), elimusertib (NSC800525), camonsertib (NSC841442), AZD-1390 (NSC803789), olaparib (NSC753686), talazoparib (NSC767125), ART-558 (NSC835418), sotorasib (NSC818433), MRTX-1133 (NSC836407), SN-38 (NSC673596), topotecan (NSC609699), etoposide (NSC141540), doxorubicin (NSC123127), gemcitabine (NSC613327), 5-fluorouracil (NSC19893), paclitaxel (NSC125973), vemurafenib (NSC761431), panobinostat (NSC761190), R-306465 (JNJ-16241199; NSC773264), adavosertib (NSC754352), TP-3654 (NSC805149), carboplatin (NSC241240), KSQ-4279 (NSC840948), and staurosporine (NSC755774) were obtained from the National Cancer Institute (NCI) Developmental Therapeutics Program Chemical Repository (34). The FDA-approved anticancer drug set is available from the NCI Developmental Therapeutics Program. […] The stock solutions were prepared in dimethyl sulfoxide (DMSO, Sigma-Aldrich, St. Louis, MO, cat. D2650) at 800-fold the tested concentration and stored at -70 degrees C prior to their use. All drugs and investigational agents were tested over a range starting from a high concentration at or near the clinical Cmax and decreasing in half-log increments. If the clinical Cmax for an agent had not been determined, the highest concentration tested was 10 microM.
# 2.3 Cell Culture. All cells were maintained in an incubator at 37 degrees C and 5% CO2 with 95% humidity. The PDC lines were cultured according to standard operating procedures established by the NCI PDMR. All PDCs were thawed and cultured in Matrigel-coated flasks prepared with a working solution of 1X Ham's F-12 nutrient mix, without supplementation (Invitrogen, cat. 11765054), 100 U/mL penicillin-streptomycin (Invitrogen, cat. 15140122), and 2.5% Matrigel (Corning Inc., cat. 354248) for the first three passages. The 857933-349-R-J2-PDC line was cultured in 6C/Colon 1B media, which includes advanced DMEM/F-12 (Thermo Fisher Scientific, cat. 12634028), 10 mM HEPES (Thermo Fisher Scientific, cat. 15630080), 1X GlutaMAX supplement (Thermo Fisher Scientific, cat. 35050061), 0.1 mg/mL primocin (InvivoGen, cat. ant-pm-2), 10% defined fetal bovine serum, heat inactivated (HyClone Laboratories Inc., cat. SH30070.03HI), 50% L-WRN conditioned media (ATCC, cat. CRL-3276), 1.25 mM N-Acetyl-L-cysteine (Sigma-Aldrich, cat. A9165), 10 mM nicotinamide (Sigma-Aldrich, cat. N0636), 1X B-27 supplement (Thermo Fisher Scientific, cat. 17504044), 1X N-2 supplement (Thermo Fisher Scientific, cat. 17502048), 10 microM Y-27632 dihydrochloride (Tocris Bioscience, cat. 1254), and 50 ng/mL human EGF recombinant protein (Thermo Fisher Scientific, cat. PHG0311). The 485176-168-R4-J1-PDC line was cultured in Panc media, which includes all 6C/Colon 1B media components plus 100 ng/mL human FGF-10 (Thermo Fisher Scientific, cat. 100-26), 500 nM SB-431542 (Selleckchem, cat. S1067), and gastrin (Tocris, cat. 3006).
# […]
# [1] = second compound 0.0316 µM, first compound 0.000999 µM
# [2] = second compound 0.0316 µM, first compound 0.00316 µM
# [3] = second compound 0.0316 µM, first compound 0.00999 µM
# [4] = second compound 0.0316 µM, first compound 0.0316 µM
# [5] = second compound 0.0316 µM, first compound 0.0999 µM
# [6] = second compound 0.0316 µM, first compound 0.316 µM
# [7] = second compound 0.1 µM, first compound 0.000999 µM
# [8] = second compound 0.1 µM, first compound 0.00316 µM
# [9] = second compound 0.1 µM, first compound 0.00999 µM
# [10] = second compound 0.1 µM, first compound 0.0316 µM
# [11] = second compound 0.1 µM, first compound 0.0999 µM
# [12] = second compound 0.1 µM, first compound 0.316 µM
# [13] = second compound 0.316 µM, first compound 0.000999 µM
# [14] = second compound 0.316 µM, first compound 0.00316 µM
# [15] = second compound 0.316 µM, first compound 0.00999 µM
# [16] = second compound 0.316 µM, first compound 0.0316 µM
# [17] = second compound 0.316 µM, first compound 0.0999 µM
# [18] = second compound 0.316 µM, first compound 0.316 µM
# [19] = second compound 1 µM, first compound 0.000999 µM
# [20] = second compound 1 µM, first compound 0.00316 µM
# [21] = second compound 1 µM, first compound 0.00999 µM
# [22] = second compound 1 µM, first compound 0.0316 µM
# [23] = second compound 1 µM, first compound 0.0999 µM
# [24] = second compound 1 µM, first compound 0.316 µM
# [25] = second compound 3.16 µM, first compound 0.000999 µM
# [26] = second compound 3.16 µM, first compound 0.00316 µM
# [27] = second compound 3.16 µM, first compound 0.00999 µM
# [28] = second compound 3.16 µM, first compound 0.0316 µM
# [29] = second compound 3.16 µM, first compound 0.0999 µM
# [30] = second compound 3.16 µM, first compound 0.316 µM
# [31] = second compound 10 µM, first compound 0.000999 µM
# [32] = second compound 10 µM, first compound 0.00316 µM
# [33] = second compound 10 µM, first compound 0.00999 µM
# [34] = second compound 10 µM, first compound 0.0316 µM
# [35] = second compound 10 µM, first compound 0.0999 µM
# [36] = second compound 10 µM, first compound 0.316 µM
# 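Also: spheroids exposed to the agents for seven days before readout.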
# 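For viability, T/C in this document: percent viability relative to DMSO vehicle control wells = 100%.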
structure (smiles),measurement,setting,value
CCc1c2c(nc3ccc(O)cc13)-c1cc3c(c(=O)n1C2)COC(=O)[C@]3(O)CC + CN(C)c1ccc(Nc2c3ccc(NC(=O)CCN4CCCC4)cc3nc3cc(NC(=O)CCN4CCCC4)ccc23)cc1,pIC50,second compound 0.0316 µM,< 6.50
same,pIC50,second compound 0.1 µM,< 6.50
same,pIC50,second compound 0.316 µM,< 6.50
same,pIC50,second compound 1 µM,< 6.50
same,pIC50,second compound 3.16 µM,< 6.50
same,pIC50,second compound 10 µM,< 6.50
same,"viability, T/C",[1],89.2%
same,"viability, T/C",[2],110%
same,"viability, T/C",[3],89.4%
same,"viability, T/C",[4],94.9%
same,"viability, T/C",[5],90.8%
same,"viability, T/C",[6],98%
same,"viability, T/C",[7],112%
same,"viability, T/C",[8],98.5%
same,"viability, T/C",[9],86.2%
same,"viability, T/C",[10],80%
same,"viability, T/C",[11],85.1%
same,"viability, T/C",[12],72%
same,"viability, T/C",[13],113%
same,"viability, T/C",[14],113%
same,"viability, T/C",[15],71.4%
same,"viability, T/C",[16],89.1%
same,"viability, T/C",[17],91.5%
same,"viability, T/C",[18],78%
same,"viability, T/C",[19],105%
same,"viability, T/C",[20],115%
same,"viability, T/C",[21],91.6%
same,"viability, T/C",[22],86.5%
same,"viability, T/C",[23],103%
same,"viability, T/C",[24],86.4%
same,"viability, T/C",[25],117%
same,"viability, T/C",[26],112%
same,"viability, T/C",[27],76.1%
same,"viability, T/C",[28],85%
same,"viability, T/C",[29],84.5%
same,"viability, T/C",[30],94.5%
same,"viability, T/C",[31],103%
same,"viability, T/C",[32],129%
same,"viability, T/C",[33],92%
same,"viability, T/C",[34],83.7%
same,"viability, T/C",[35],84.8%
same,"viability, T/C",[36],100%
CCc1c2c(nc3ccc(O)cc13)-c1cc3c(c(=O)n1C2)COC(=O)[C@]3(O)CC + Cc1cnc(CNC(=O)c2c(=O)c3ccc(N4CCCN(C)CC4)nc3n3c2sc2ccccc23)cn1,pIC50,second compound 0.0316 µM,< 6.50
same,pIC50,second compound 0.1 µM,< 6.50
same,pIC50,second compound 0.316 µM,< 6.50
same,pIC50,second compound 1 µM,< 6.50
same,pIC50,second compound 3.16 µM,6.85
same,pIC50,second compound 10 µM,> 9.00
same,"viability, T/C",[1],102%
same,"viability, T/C",[2],95.6%
same,"viability, T/C",[3],68.3%
same,"viability, T/C",[4],70.9%
same,"viability, T/C",[5],76.7%
same,"viability, T/C",[6],62.3%
same,"viability, T/C",[7],95.5%
same,"viability, T/C",[8],107%
same,"viability, T/C",[9],76.5%
same,"viability, T/C",[10],71.2%
same,"viability, T/C",[11],65.5%
same,"viability, T/C",[12],60.2%
same,"viability, T/C",[13],93.8%
same,"viability, T/C",[14],95.4%
same,"viability, T/C",[15],72.4%
same,"viability, T/C",[16],67.8%
same,"viability, T/C",[17],68.2%
same,"viability, T/C",[18],60.5%
same,"viability, T/C",[19],76.4%
same,"viability, T/C",[20],79.8%
same,"viability, T/C",[21],77.5%
same,"viability, T/C",[22],74.8%
same,"viability, T/C",[23],54.6%
same,"viability, T/C",[24],63.4%
same,"viability, T/C",[25],77.6%
same,"viability, T/C",[26],68%
same,"viability, T/C",[27],64%
same,"viability, T/C",[28],59%
same,"viability, T/C",[29],56%
same,"viability, T/C",[30],43%
same,"viability, T/C",[31],0.47%
same,"viability, T/C",[32],20.1%
same,"viability, T/C",[33],34.8%
same,"viability, T/C",[34],11.9%
same,"viability, T/C",[35],0.39%
same,"viability, T/C",[36],0.32%
